“Also recorded” adds a separate entry of the source. Where two headings read alike, the source gives them in different places. Square brackets hold non-standard residues; d marks the D form. Ends that are not written are not given here. Peptide text beside a SMILES is read from it. NMeS = CN[C@@H](CO)C(=O)O; NMeA = CN[C@@H](C)C(=O)O
Key:
[1] = target: T1, NTMT2 (Homo sapiens, UniProt Q5VVY1); assay: Isothermal titration calorimetry, wild-type NTMT2 and peptide; type: binding
T1 construct: DNA encoding human NTMT2 (residues 58–278) was amplified by PCR; SUMO (His8-SUMO of the pET28-MKH8SUMO vector, with TEV site) (N, cleaved yes); made in house; host or cells: Escherichia coli BL21 (DE3)
Description: ITC measurements were performed in 20 mM Tris–HCl pH 7.5, 150 mM NaCl and 0.5 mM TCEP at 25 °C using MicroCal VP-ITC instrument. The final concentrations of protein and peptide were 50–80 μM and 0.6–1.2 mM, respectively. The peptide was titrated into the protein solution with 26 injections of 10 μL each. Injections were spaced 180 s with a reference power of 15 μcal s^−1. The ITC data were processed using Origin software.

[2] = target: RCC1 (Homo sapiens); settings: cited from earlier work
[3] = target: T1, NTMT2; assay: MALDI-MS methyltransferase activity assay, NTMT2; type: biochemical; settings: 2 μM NTMT2, 10 μM peptide, 200 μM SAM, 25 mM Tris–HCl pH 7.5, 50 mM KCl, 37 °C, overnight
Description: (§1) A mixture (36 μL) of 2 μM enzyme (NTMT1 or NTMT2), 25 mM Tris–HCl pH 7.5, 50 mM KCl and 200 μM SAM was incubated at 37 °C for 5 min. 4 μL of 100 μM peptide substrate (final concentration 10 μM) was then added to initiate the reaction. The reaction was incubated overnight and then stopped with quenching solution (20 mM NH4H2PO4, 0.4% (v/v) TFA in 1:1 acetonitrile/water). Reaction mixtures were analyzed with an Applied Biosystems Voyager matrix-assisted laser desorption/ionization time-of-flight mass spectrometer. Processing of all spectra results in Data Explorer included application of a noise filter (correlation factor of 1.0) and a baseline correction. Areas of the monoisotopic peaks for all relevant species were combined to obtain a total area for each sample. The fraction of each methylation state was calculated by summing the areas of all the monoisotopic peaks for that state ([M + H]^+, [M + Na]^+, [M + K]^+, [M – H + 2Na]^+, [M – H + 2 K]^+, and [M – H + Na + K]^+) and then dividing by the total area.

[4] = system: NTMT1; assay: MALDI-MS methyltransferase activity assay, NTMT1; type: biochemical, human; settings: 2 μM NTMT1, 10 μM peptide, 200 μM SAM, 25 mM Tris–HCl pH 7.5, 50 mM KCl, 37 °C, overnight
Description: as §1

[5] = system: NTMT2-N89G mutant; assay: MALDI-MS methyltransferase activity assay, NTMT2-N89G mutant; type: biochemical, human; settings: NTMT2-N89G under the same conditions (2 μM enzyme, 10 μM peptide, 200 μM SAM, pH 7.5, 37 °C, overnight)
Description: as §1

[6] = target: T2, NTMT2 (residues 58–278) N89G mutant (human, UniProt Q5VVY1 58-278, N89G); assay: ITC; peptide (0.6–1.2 mM) titrated into protein (50–80 μM); 20 mM Tris–HCl pH 7.5, 150 mM NaCl, 0.5 mM TCEP, 25 °C; MicroCal VP-ITC; settings: both partners purified
T2 construct: N-terminal methyltransferase NTMT2 (METTL11B/NRMT2), human, residues 58-278; also called NTMT2-N89G; source: E. coli BL21 (DE3), purified with the same protocol as wild type; not shown: SUMO, N-terminal, cleaved

[7] = ITC, wild-type NTMT2, 20 mM Tris–HCl pH 7.5, 150 mM NaCl, 0.5 mM TCEP, 25 °C, ND = no detectable binding

T1 sequence (Q5VVY1 58-278): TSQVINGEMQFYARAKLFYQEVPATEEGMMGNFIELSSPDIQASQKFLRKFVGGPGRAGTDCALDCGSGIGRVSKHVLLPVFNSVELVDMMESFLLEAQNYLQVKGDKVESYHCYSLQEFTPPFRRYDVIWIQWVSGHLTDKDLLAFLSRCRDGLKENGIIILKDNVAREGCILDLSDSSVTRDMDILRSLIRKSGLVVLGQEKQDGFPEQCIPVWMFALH
T2 sequence (Q5VVY1 58-278 N89G): as the sequence (Q5VVY1 58-278) above, with N32G counted along it

Question: With `CC[C@H](C)[C@H](NC(=O)[C@H](CCCNC(=N)N)NC(=O)[C@H](CCCCN)NC(=O)[C@@H]1CCCN1C(=O)[C@H](C)NC)C(=O)N[C@@H](C)C(=O)O` [Ame1PKRIA] (H-[NMeA]PKRIA-OH) as the molecule, how does the Kd [1, 7] read?
Answer: no detectable binding; also recorded: does not bind

Question: Which Kd [1, 7] does the source give for `CC[C@H](C)[C@H](NC(=O)[C@H](CCCNC(=N)N)NC(=O)[C@H](CCCCN)NC(=O)[C@@H]1CCCN1C(=O)[C@H](CO)NC)C(=O)N[C@@H](C)C(=O)O` [Sme1PKRIA] (H-[NMeS]PKRIA-OH) here?
Answer: barely demonstrated any binding affinity; also recorded: does not bind

Question: Which Kd [2] does the source give for NTMT1 (from UniProt Q9BV86) here?
Answer: 0.8 µM

Question: What does the source list for SPKRIA [SPKRIA]?
Answer: Kd ([1]; read-out: Kd): 18 µM; Di-methylated fraction [3]: 0.00%; Mono-methylated fraction [3]: 46.39%; Trimethylated fraction [3]: 0.00%; Unmethylated fraction [3]: 53.61%

Question: For “WPKRIA [synthetic XPKRIA hexapeptide substrate, X = W]”, which Di-methylated fraction [4] is on record?
Answer: 17.46%

Question: And the Mono-methylated fraction [4]?
Answer: 67.03%

Question: What about the Trimethylated fraction [4] of the same molecule?
Answer: 0.00%

Question: What about the Unmethylated fraction [4] of the same molecule?
Answer: 15.51%

Question: What about the Di-methylated fraction [3] of the same molecule?
Answer: 0.00%

Question: And the Mono-methylated fraction [3]?
Answer: 36.35%

Question: What about the Trimethylated fraction [3] of the same molecule?
Answer: 0.00%

Question: What about the Unmethylated fraction [3] of the same molecule?
Answer: 63.65%

Question: And the Di-methylated fraction [5]?
Answer: 0.00%

Question: What about the Mono-methylated fraction [5] of the same molecule?
Answer: 100.00%

Question: And the Trimethylated fraction [5]?
Answer: 0.00%

Question: What about the Unmethylated fraction [5] of the same molecule?
Answer: 0.00%

Question: Which results are given for “YPKRIA [synthetic XPKRIA hexapeptide substrate, X = Y]”?
Answer: Di-methylated fraction [4]: 100.00%; Mono-methylated fraction [4]: 0.00%; Trimethylated fraction [4]: 0.00%; Unmethylated fraction [4]: 0.00%; Di-methylated fraction [3]: 0.00%; Mono-methylated fraction [3]: 23.72%; Trimethylated fraction [3]: 0.00%; Unmethylated fraction [3]: 76.28%; Di-methylated fraction [5]: 0.00%; Mono-methylated fraction [5]: 87.50%; Trimethylated fraction [5]: 0.00%; Unmethylated fraction [5]: 12.50%

B1: Sme1PKRIA peptide (methylated SPKRIA) (peptide)
peptide: [NMeS]PKRIA
notes: N-terminal hexapeptide of regulator of chromatin condensation 1 (RCC1), without the initiator methionine, alpha-N-monomethylated; also called mono-methylated SPKRIA
Question: For B1, which Kd [6] is on record?
Answer: 36 µM

B2: Ame1PKRIA peptide (peptide)
peptide: [NMeA]PKRIA
notes: XPKRIA peptide derived from the RCC1 N-terminal hexapeptide SPKRIA, with alanine at the first position, alpha-N-monomethylated; also called mono-methylated APKRIA
Question: With B2 as the molecule, how does the Kd [6] read?
Answer: 32 µM

Source: article PMC6214909, “An asparagine/glycine switch governs product specificity of human N-terminal methyltransferase NTMT2” (Communications Biology, 2018)
